# Source: PMC4409069 (PLoS ONE, 2015)
# Where two headings read alike, the source gives them in different places. Ends that are not written are not given here.
# How the values were obtained:
# [1] = test system: A/Philippines/2/82/H3N2 (Phil82); assay type: cell-based, influenza A virus; conditions: for IC50: read-out: approximate 50% viral neutralizing concentration
# [2] = test system: A/California/04/09/H1N1 pandemic strain (Cal09); assay type: cell-based, influenza A virus
# [3] = test system: A/New York/312/01/H1N1 (NY01) seasonal strain; assay type: cell-based, influenza A virus
# [4] = test system: Mex 1:7 (HA gene of A/Mexico/4108/09/H1N1 with the other 7 genes of NY01); assay type: cell-based, influenza A virus
# [5] = test system: Mex 2:6 (HA and NA of A/Mexico/09/H1N1, other genes of NY01); assay type: cell-based, influenza A virus
# MDCK cells = test: LDH assay of cell viability, MDCK cells; assay type: cell-based, canine; conditions: peptide 12.8 μM, 24 hrs, mean±SEM of 3 or 4 experiments
# Description: The LDH assay was performed using LDH cytoxicity detection kit (Clontech, CA, USA) according to the manufacturer’s instructions. In brief, MDCK cells were incubated with Phil82 IAV (with or without LL-37 and related peptides). Cells were also incubated with peptides alone. The incubation time (24 hrs) and assay conditions were exactly same as in fluorescent focus assays. The LDH activity was measured after the 24 hrs incubation of cells with IAV and/or peptides. Controls included uninfected/untreated cells as negative control (NC) and cells treated with lysis solution as positive control (PC). The percent cytotoxicity is obtained from OD values using the formula: [(Sample OD—NC OD) ÷ (PC OD—NC OD)] ×100
# HBTE cells = test: LDH assay of cell viability, HBTE cells; assay type: cell-based, human; conditions: 24 hrs, mean±SEM of 3 or 4 experiments
# [6] = test system: hemagglutination activity of Phil82 IAV; test: Hemagglutination (HA) inhibition assay; assay type: biochemical, influenza A virus; conditions: concentrations up to 12μM, three experiments, human type O red cells
# Description: HA inhibition was measured by serially diluting LL-37 peptides in round bottom 96 well plates (Serocluster U-Vinyl plates; Costar, Cambridge, MA) using PBS as a diluent and human type O red cells as described. 40 HA units of virus was used in the assay.
# [7] = test system: neuraminidase (NA) activity of Phil82; assay type: biochemical, influenza A virus
# NA activity of Cal09 = assay type: biochemical, influenza A virus
# NY01 = assay type: cell-based, influenza A virus
# Cal09 = assay type: cell-based, influenza A virus
# [8] = test system: A/California/04/09/H1N1 pandemic strain (Cal09); assay type: cell-based, influenza A virus; remark: listed apart in the source
# [9] = test system: A/California/04/09/H1N1 pandemic strain (Cal09); assay type: cell-based, influenza A virus; remark: listed apart in the source
# A/PR/8/34/H1N1 (PR-8) = assay type: cell-based, influenza A virus
# [10] = HBTE no IAV, peptide 12.8 μM, LL-23V9 n = 1, * significantly reduced vs control
# [11] = HBTE+IAV (Phil82), peptide 12.8 μM, LL-23V9 n = 1, * significantly reduced vs control
# [12] = read-out: approximate 50% viral neutralizing concentration
Molecule,"antiviral (neutralizing) activity, in words [1]","effect on replication, in words [2]",% Viability of MDCK or HBTE Cells (MDCK cells; MDCK no IAV) [%],% Viability of MDCK or HBTE Cells (MDCK cells; MDCK+IAV (Phil82)) [%],% Viability of MDCK or HBTE Cells (HBTE cells; [10]),% Viability of MDCK or HBTE Cells (HBTE cells; [11]),inhibition of hemagglutination activity [6],"effect on infectivity, in words [8]","effect on infectivity, in words [9]",other results
"CC[C@H](C)[C@H](NC(=O)[C@H](CCCCN)NC(=O)[C@H](CCC(=O)O)NC(=O)[C@H](CCCCN)NC(=O)[C@H](CO)NC(=O)[C@H](CCCCN)NC(=O)[C@H](CCCNC(=N)N)NC(=O)[C@H](Cc1ccccc1)NC(=O)[C@H](Cc1ccccc1)NC(=O)[C@H](CC(=O)O)NC(=O)CNC(=O)[C@H](CC(C)C)NC(=O)[C@@H](N)CC(C)C)C(=O)NCC(=O)N[C@@H](CCCCN)C(=O)N[C@@H](CCC(=O)O)C(=O)N[C@@H](Cc1ccccc1)C(=O)N[C@@H](CCCCN)C(=O)N[C@@H](CCCNC(=N)N)C(=O)N[C@H](C(=O)N[C@H](C(=O)N[C@@H](CCC(N)=O)C(=O)N[C@@H](CCCNC(=N)N)C(=O)N[C@H](C(=O)N[C@@H](CCCCN)C(=O)N[C@@H](CC(=O)O)C(=O)N[C@@H](Cc1ccccc1)C(=O)N[C@@H](CC(C)C)C(=O)N[C@@H](CCCNC(=N)N)C(=O)N[C@@H](CC(N)=O)C(=O)N[C@@H](CC(C)C)C(=O)N[C@H](C(=O)N1CCC[C@H]1C(=O)N[C@@H](CCCNC(=N)N)C(=O)N[C@H](C(=O)N[C@@H](CCC(=O)O)C(=O)N[C@@H](CO)C(=O)O)[C@@H](C)O)C(C)C)[C@@H](C)CC)C(C)C)[C@@H](C)CC [LL-37, reference compound]",clear dose-related antiviral activity,only slight inhibition at intermediate doses of LL-37 and actual enhancement of the replication of this strain at higher doses,92±11,99±12,57±6* %,55±6* %,No inhibition was observed,–,–,"IC50 [1]: ~2 µg/mL; effect on replication, in words [3]: clear dose related inhibition; effect on replication, in words [4]: inhibited at all concentrations tested; effect on replication, in words [5]: inhibited by LL-37 at the lower concentration of 2.2μM but higher concentrations of LL-37 were not inhibitory; % Viability of MDCK or HBTE Cells (HBTE cells; HBTE no IAV, peptide 6.4 μM): 95±2%; % Viability of MDCK or HBTE Cells (HBTE cells; HBTE+IAV (Phil82), peptide 3.2 μM): 105±4%; % Viability of MDCK or HBTE Cells (HBTE cells; HBTE+IAV (Phil82), peptide 6.4 μM): 91±4%; inhibition of NA activity, in words [7]: neither LL-37 nor the related peptides inhibited NA activity; inhibition of NA activity, in words (NA activity of Cal09): did not inhibit NA activity; concentrations that significantly decreased viral RNA in supernatants and cells (NY01): ≥ 0.4 µM; viral RNA at 24 hrs after infection, in words (NY01): significant reduction in RNA of NY01 in both cells and supernatant; viral uptake by MDCK cells (viral M protein RNA), in words (NY01): significant reduction of uptake; viral RNA at 24 hrs after infection, in words (Cal09): trend to increase of Cal09 in the cells in presence of LL-37 but this was again highly variable and not statistically significant; viral uptake by MDCK cells (viral M protein RNA in cell lysate), in words (Cal09): no significant difference in viral uptake"
CCOC(=O)C1=C[C@@H](OC(CC)CC)[C@H](NC(C)=O)[C@@H](N)C1 [Oseltamivir],–,–,–,–,–,–,–,–,–,"inhibition of NA activity, in words [7]: marked reduction of NA activity"
CRAMP [reference compound],–,did not significantly inhibit,–,–,–,–,–,–,–,"effect on replication, in words [3]: inhibited (albeit modestly); effect on replication, in words [4]: inhibited (albeit modestly); effect on replication, in words [5]: did not significantly inhibit"
GIKEFKRIVQRIKDFLRNLV-NH2 [GI-20],approached or equaled that of full length LL-37,significant inhibition,103±7,107±3,103±3%,104±3%,No inhibition was observed,significant inhibition,significant inhibition,–
"HNP-1: the human defensin HNP-1 (human neutrophil peptide), purchased from Bachem [reference compound]",–,did inhibit Cal09,–,–,–,–,–,–,–,–
LLGDFFRKSKEKIGKEFKRIVQR [LL-23],slight antiviral activity,modest but statistically significant inhibition,105±4,101±11,98±1%,98±3%,No inhibition was observed,without activity,without activity,"approximate 50% viral neutralizing concentration [1]: >32μg/ml (>11.3 μM); IC50 [1]: > 11.3 µM; approximate 50% viral neutralizing concentration (A/PR/8/34/H1N1 (PR-8)): >32μg/ml (>11.3 μM); IC50 (A/PR/8/34/H1N1 (PR-8); [12]): > 11.3 µM; approximate 50% viral neutralizing concentration [3]: >32μg/ml (>11.3 μM); IC50 [3, 12]: > 11.3 µM"
LLGDFFRKVKEKIGKEFKRIVQR [LL-23V9],significantly increased activity compared to LL-23,modest but statistically significant inhibition,112±6,108±7,103%,99%,No inhibition was observed,without activity,without activity,–
